Where no end group is shown, it is not given here.
What was measured:
[1] = amino acid hydrophobicity index; cited from earlier work
Description: Rimola et al. reported a review paper on the effect of silica surface features on the adsorption of biomolecules, such as polypeptides. […] This tendency was also obtained in our experiments as described in Fig. 2C. […] All 5 ...

[2] = target: T1, pepsin (Sus scrofa, UniProt P00791); assay: Peptide digestive enzyme stability experiment (SGF with pepsin); type: in vitro ADME; details: SGF pH 1.2 with pepsin (0.32 g/100 mL), 60 min, 37 °C, RP-HPLC UV, no addition of pepsin = 100%
T1 construct: purchased WAKO, Japan 161–24482
Procedure: Finally, we investigated whether the heat-treated silica gel used in this study protected the peptides that were adsorbed to them from pepsin degradation. We used DFELEDD with a high score value (Fig. 3D). The peptide was adsorbed to the heat-treated silica gel, incubated for 60 min in simulated gastric fluid containing pepsin, and then transferred to the pH 7.4 buffer that mimics the intestinal environment. […] In contrast, the degradation of the peptide was inhibited under the condition with silica gel and 57.1 ± 3.9% of the peptide was released. This occurred because the peptide was adsorbed to the pore surface of the heat-treated silica gel. Schlipf et al. reported EGFP (2.4 nm diameter × 4.2 nm) protection from proteolytic attack by Pepsin A (7.3 nm × 3.6 nm × 5.4 nm) by the mesoporous silica with 7.3 nm pores. […]
SGF (simulated gastric fluid) has been reported previously. […] To quantify the peptide, 250 μL of solution was injected into the HPLC.
Chromatographic analysis was performed with a HPLC system (JASCO, Japan) equipped with pump (model PU 2086 Plus), UV detector (model MD 4017), and a C18 column (d = 20 mm, L = 250 mm; SHISEIDO, Japan). […] The column was maintained at 30 °C, the flow rate was 5 mL/min, and the eluted peaks were detected by UV absorbance of 220 and 280 nm.

T1 sequence (P00791 60-385): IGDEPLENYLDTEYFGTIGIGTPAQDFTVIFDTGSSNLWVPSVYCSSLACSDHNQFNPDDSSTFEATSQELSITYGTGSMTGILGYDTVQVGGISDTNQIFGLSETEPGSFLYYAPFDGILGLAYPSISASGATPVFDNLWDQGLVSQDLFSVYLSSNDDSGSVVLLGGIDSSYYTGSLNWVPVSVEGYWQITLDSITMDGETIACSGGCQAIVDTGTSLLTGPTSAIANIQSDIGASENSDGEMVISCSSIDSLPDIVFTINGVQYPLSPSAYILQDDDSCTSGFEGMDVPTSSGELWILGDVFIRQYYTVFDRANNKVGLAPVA

| Molecule | Hydrophobicity of amino acid [1] | Peptide release rate (protection) after pepsin degradation, with heat-treated silica gel ([2]; 0.5 mM peptide mixed with 25 mg/mL heat-treated silica gel, precipitate released in 300 μL PBS pH 7.4, mean ± SD) | Peptide release rate after pepsin degradation, without silica gel ([2]; no silica gel, 0.5 mM peptide, then pH 7.4 PBS) |
| --- | --- | --- | --- |
| CC(C)[C@H](N)C(=O)O [V] | 4.2 | – | – |
| N[C@@H](Cc1ccccc1)C(=O)O [F, Phe] | 2.8 | – | – |
| DFELEDD [DFELEDD] | – | 57.1 ± 3.9% | < 1.0% |
| CC[C@H](C)[C@H](N)C(=O)O [I] | 4.5 | – | – |
